One data set is described as follows: LogP (Table 1). It counts as physicochemical.
The test system of the next data set is M. incognita. Kind of data set: Meloidogyne spp. contact activity, preventive, cucumber in pots treated with WP10 suspension. It counts as in vivo. As for the experimental part:
Cucumber cv. Toshka seeds were sown directly into pots filled with a sandy substrate. Six days later pots were each treated with 5 ml of a WP10 suspension of the test compound. Hereafter, pots were inoculated with 3000 eggs of M. incognita. The trial was harvested fourteen days after trial application and inoculation. Root galling was assessed according to Zeck's gall index (Zeck W. M. (1971) Ein Bonitierungsschema zur Feldauswertung von Wurzelgallenbefall. Pflanzenschutznachrichten Bayer 24, 1: 144-147). Phytotoxicity was measured as a reduction of growth of the emerged cucumber seedling in comparison to the control.

Data set [1] relates to Meloidogyne spp. (root-knot nematode). As to the kind of experiment: Meloidogyne spp. contact activity, preventive, cucumber seed in filter paper pouch. The data set is classed as in vivo. As for the experimental part: (§1) Filter papers (9 cm×4.5 cm) with a small pocket were placed into plastic pouches (12 cm×6 cm). One cucumber cv. Toshka seed was placed in the centre of the filter paper pocket of all the pouches needed for a test. […] Prior to application, the compound solution was prepared at twice the concentration required and the egg suspension is prepared with FORL nutrient solution with 3000 eggs/0.5 ml. After applying all the treatments, 3000 eggs (in 0.5 ml of FORL nutrient solution) were pipetted into the pouches. The pouches were incubated in a moist chamber for twelve days and watered regularly to maintain good filter paper moisture essential for the growing cucumber root system. After this period, the filter paper containing the germinated cucumber seedling was removed from the plastic pouch to assess the number of galls caused by Meloidogyne spp. per root system. Phytotoxicity was measured as a reduction of growth of the emerged cucumber seedling in comparison to the control.
as §1, with “system.” for “system. Phytotoxicity was measured as a reduction of growth of the emerged cucumber seedling in comparison to the control.”

The subject of data set [2] is Pratylenchus zeae (Corn Lesion Nematode). Kind of data set: Pratylenchus zeae contact activity, preventive, coated corn seeds. It counts as in vivo. Conditions: seed treatment 1 mg Al/seed, corn cv. LG4620, 1500 nematodes, 7 days after inoculation. As for the experimental part:
Coated corn cv. LG4620 seeds were sown 1 cm deep into 45 ml pots with soil (7:3 w/w—a mixture of 70% field soil and 30% quartz Sand). Two days after sowing the pots were infested with 1500 nematodes (all stages) of Pratylenchus zeae within a 2 ml suspension in two holes to the left and right of the seed hole. Assessment of phytotoxicity (in %) and nematode numbers within the root system occurred 7 days after inoculation. The upper plant part was cut off and the roots were washed free of soil debris. Nematodes within the roots were stained with acid fuchsin stain solution. Nematodes within the roots were quantified under a dissecting scope at 40×. Seed treatment rate: 1 mg Al/seed

Setting [3] is: 0.16 ppm, cucumber pot test, read-out: Mortality (%).
Where [4] appears, read: 0.8 ppm, cucumber pot test, read-out: Mortality (%).
The mark [5] stands for this setting: 4 ppm, cucumber pot test, read-out: Mortality (%).
The mark [6] stands for this setting: 20 ppm, cucumber pot test, read-out: Mortality (%).
[7] abbreviates: 1.6 ppm, cucumber pouch test, read-out: Mortality (%).
The mark [8] stands for this setting: 8 ppm, cucumber pouch test, read-out: Mortality (%).
Setting [9] is: 40 ppm, cucumber pouch test, read-out: Mortality (%).
Where [10] appears, read: 200 ppm, cucumber pouch test, read-out: Mortality (%).

Like-named read-outs stand apart in the source and are kept apart here.

For the compound `O=C(N[C@H]1CC[C@H]1c1ccc(F)cc1F)c1scnc1C(F)F` [Example 8, 4-(difluoromethyl)-N-[(1S,2S)-2-(2,4-difluorophenyl)cyclobutyl]thiazole-5-carboxamide], the logP in the data set “LogP (Table 1)” was 2.4.

`O=C(N[C@H]1CC[C@H]1c1ccc(Cl)cc1Cl)c1scnc1C(F)(F)F` [Example 7, N-[(1S,2S)-2-(2,4-dichlorophenyl)cyclobutyl]-4-(trifluoromethyl)thiazole-5-carboxamide] yielded a logP in the data set “LogP (Table 1)” of 3.44. In the data set on M. incognita (setting [3]), the mortality at 0.16 ppm was 14%. The mortality at 0.8 ppm with M. incognita (setting [4]) came out at 14%. Also, the mortality at 4 ppm in the data set with M. incognita (setting [5]) was determined as 60%. In addition, in the data set with M. incognita (setting [6]), the mortality at 20 ppm was 99%. For the same compound, the mortality at 1.6 ppm in data set [1] (setting [7]) stood at 77%. Moreover, the mortality at 8 ppm in data set [1] (setting [8]) stood at 90%. In data set [1] (setting [9]), the mortality at 40 ppm stood at 98%. For the same compound, the mortality at 200 ppm in data set [1] (setting [10]) is 99%.

In the case of `O=C(N[C@H]1CC[C@H]1c1ccc(Cl)cc1Cl)c1scnc1C(F)F` [Example 9, N-[(1S,2S)-2-(2,4-dichlorophenyl)cyclobutyl]-4-(difluoromethyl)thiazole-5-carboxamide], the logP in “LogP (Table 1)” is 3.25. Moreover, the mortality at 0.16 ppm in the data set with M. incognita (setting [3]) stood at 22%. In addition, the mortality at 0.8 ppm in the data set with M. incognita (setting [4]) stood at 61%. Moreover, the mortality at 4 ppm in the data set with M. incognita (setting [5]) was determined as 97%. Besides, the mortality at 20 ppm in the data set with M. incognita (setting [6]) came to 98%. For the same compound, the mortality at 1.6 ppm in data set [1] (setting [7]) came to 0%. For the same compound, in data set [1] (setting [8]), the mortality at 8 ppm is 64%. Besides, in data set [1] (setting [9]), the mortality at 40 ppm came to 81%. Also, the mortality at 200 ppm in data set [1] (setting [10]) turned out to be 98%.

In the data set “LogP (Table 1)”, `O=C(N[C@H]1CC[C@H]1c1ccc(F)cc1Cl)c1scnc1C(F)(F)F` [Example 5, N-[(1S,2S)-2-(2-chloro-4-fluoro-phenyl)cyclobutyl]-4-(trifluoromethyl)thiazole-5-carboxamide] gave a logP of 2.92. Further, the “reduction of nematode population compared to the untreated control” value in data set [2] is listed as “greater than 80%”.

In the data set “LogP (Table 1)”, `O=C(N[C@H]1CC[C@H]1c1ccc(F)cc1F)c1scnc1C(F)(F)F` [Example 6, N-[(1S,2S)-2-(2,4-difluorophenyl)cyclobutyl]-4-(trifluoromethyl)thiazole-5-carboxamide] came in with a logP of 2.71.

As for `Cc1nc(C(F)(F)F)c(C(=O)N[C@H]2CC[C@H]2c2ccc(Cl)cc2Cl)s1` [C, reference compound], in the data set on M. incognita, the mortality at 0.16 ppm was found to be 0%, the mortality at 0.8 ppm came out at 0%, the mortality at 4 ppm came to 0% and the mortality at 20 ppm turned out to be 0%. In addition, in data set [1], the mortality at 1.6 ppm amounted to 0%, the mortality at 8 ppm was 0%, the mortality at 40 ppm turned out to be 0% and the mortality at 200 ppm amounted to 0%.

`O=C(N[C@H]1CC[C@H]1c1ccc(Cl)cc1)c1scnc1C(F)(F)F` [Example 4, N-[(1S,2S)-2-(4-chlorophenyl)cyclobutyl]-4-(trifluoromethyl)thiazole-5-carboxamide] returned a melting point of 103 to 108 °C. Besides, the log partition coefficient (logP) in “LogP (Table 1)” was 3.21.

Usually logP stands for the decadic logarithm of the partition coefficient of the neutral form, usually between octanol and water. Higher therefore signals higher lipophilicity. For orientation: mortality means the share of the test organisms that died. A word on the melting point: it is the temperature of the solid-liquid transition.

(Values after patent US20200087271A1, “N-CYCLOBUTYL-THIAZOL-5-CARBOXAMIDES WITH NEMATICIDAL ACTIVITY” (SYNGENTA PARTICIPATIONS AG, priority 2016, published 2020).)
